Like-named read-outs stand apart in the source and are kept apart here.
What was measured:
[1] = prior art statement, background; cited from earlier work
[2] = prior art statement, background; cited from earlier work; remark: listed apart in the source
[3] = Water resistance of writing (drawdown paper dipped in tap water, reflection density); format: physicochemical; settings: drawndown paper, 3% dye solution, air-dried one day
Procedure: Light resistance: The resulting dye was dissolved in a 5% aqueous diethylene glycol solution to obtain a 3% dye solution. […] A degree of discoloration was compared with that before testing.
Water resistance: The drawndown paper was air-dried for one day and dipped in tap water.
A: Reflection density is more than 70% of that before testing.
B: Reflection density is 50 to 70% of that before testing.
C: Reflection density is less than 50% that before testing.

strains TA98 [4] = format: cell-based
Procedure: Further, the trisazo dye of the present invention is a nontoxic trisazo dye which gives negative results in a back mutation test using an organism, which is generally known as a test method for evaluating toxicity, i.e. AMES test (mutation test).
Evaluation method of Ames test
Regarding various specimen solutions respectively containing a trisazo dyes obtained in Examples 1 to 8 of the present invention and dyes of Comparative Examples 1 to 3, the number of mutant colonies was determined using strains TA98. 2. When the ratio is less than 2, it is "negative" and, when the ratio is more than 2, it is "positive", and the results are shown in Table. 1.

Hue of dye / writing = format: physicochemical
strains TA98 [5] = settings: prior art statement, background; cited from earlier work

Row | Structure (SMILES) | Water resistance of aqueous ink [1] | Light resistance of aqueous ink [2] | Writing evaluation: Water resistance [3] | Ames test: ratio of the number of colonies to control (strains TA98 [4]; TA98, S-9 (+), 20 μg/plate) | Ames test: ratio of the number of colonies to control (strains TA98 [4]; TA98, S-9 (+), 78 μg/plate) | Ames test: ratio of the number of colonies to control (strains TA98 [4]; TA98, S-9 (+), 313 μg/plate) | Ames test: ratio of the number of colonies to control (strains TA98 [4]; TA98, S-9 (+), 1250 μg/plate) | Ames test: ratio of the number of colonies to control (strains TA98 [4]; TA98, S-9 (+), 5000 μg/plate) | Ames test: ratio of the number of colonies to control (strains TA98 [4]; TA98, S-9 (-), 20 μg/plate) | Ames test: ratio of the number of colonies to control (strains TA98 [4]; TA98, S-9 (-), 78 μg/plate) | Ames test: ratio of the number of colonies to control (strains TA98 [4]; TA98, S-9 (-), 313 μg/plate) | Ames test: ratio of the number of colonies to control (strains TA98 [4]; TA98, S-9 (-), 1250 μg/plate) | Ames test: ratio of the number of colonies to control (strains TA98 [4]; TA98, S-9 (-), 5000 μg/plate) | Hue (Hue of dye / writing) | Hue (Hue of dye / writing; listed as Comp. Example 3) | Ames test result (strains TA98 [5])
1 | Nc1cc2c(O)c(N=Nc3ccc(N=Nc4ccc(S(=O)(=O)[O-])cc4)c4ccc(S(=O)(=O)[O-])cc34)c(S(=O)(=O)[O-])cc2cc1S(=O)(=O)[O-].[Na+].[Na+].[Na+].[Na+] [Food Black 2] | poor | poor |  |  |  |  |  |  |  |  |  |  |  |  |  | 
2 | Cc1cc(-c2ccc(N=Nc3c(S(=O)(=O)[O-])cc4cc(S(=O)(=O)[O-])c(N=Nc5ccccc5)c(O)c4c3N)c(C)c2)ccc1N=Nc1ccc(N)cc1N.[Na+].[Na+] [compound 3, C.I. Direct Black 154, reference compound] |  |  | B (Reflection density is 50 to 70% of that before testing.) | 1.92 | 2.35 | 2.50 | 1.50 | 0.85 | 0.72 | 0.68 | 0.84 | 0.76 | 0.96 | Greenish | greenish black | false positive or positive
